Drawing on patent US9371295B2, “Compounds for use in the treatment of disorders that are ameliorated by inhibition of HDAC” (IRBM—Science Park S.p.A., priority 2012, dated 2016), this text covers IC50 and EC50 for 10 compounds.

One test deals with T1, HDAC1 (Homo sapiens, UniProt Q13547).
T1 construct: made in house
Put plainly: HDAC1 assay (Fluor-de-Lys fluorescent deacetylase assay). In kind it is biochemical. The settings on record: read-out: hHDAC IC50. Here is the method:
The HDAC1 assay is used to quantify the histone deacetylase (HDAC) activity. The assay is performed in 384 well microtiter plates by pre-incubating serial dilutions of the compounds with a fixed concentration of HeLa nuclear extract or purified HDAC1 and then adding an acetylated lysine-containing substrate/developer that fluoresces upon deacetylation.
Reagents of the HDAC Fluorescent Activity Assay are purchased from BioMol Research Laboratories (Plymouth Meeting, Pa.) and feature the Fluor-de-Lys™ Substrate/Developer System.
TSA Stock: TSA is provided as a 10 mM stock solution in 100% dimethylsulfoxide (DMSO). […] The final concentration in the assay is 20 uM.
3 uM [final] TSA to this solution increases its ability to stop the reaction.
HDAC1 Working Solution: The HDAC1 enzyme is diluted in assay buffer prior to each use from a fresh aliquot of enzyme. The final concentration in the assay is 1-2 nM.
Compounds: Test compounds are directly transferred from a 100% DMSO solution into assay plates by spotting nanoliters of solutions by an acoustic dispenser (ATS-100, EDC biosystems, US).
HeLa cells transiently transfected with pCDNA3-HDAC1-FLAG are grown to 80% confluence on 10 cm culture dishes in DMEM, 10% Fetal bovine serum supplemented with antibiotics and glutamine. Cells are washed with 10 ml cold PBS and scraped into 2 ml of PBS. Cells are centrifuged for 5 minutes at 800×g at 4° C., washed with 30 ml PBS and resuspended in 10 ml PBS, counted, re-centrifuged and frozen at −80° C.
The frozen cell pellet is re-suspended in 1 ml of hypotonic lysis buffer (LB: 20 mM Hepes pH7.9, 0.25 mM EDTA, 10% glycerol) containing COMPLETE protease inhibitor and incubated on ice for 15 minutes, followed by homogenization on a 2-ml DounceB homogenizer (25 strokes). 150 mM KCl and 0.5% NP-40 are added to the homogenate and the solution is sonicated twice for 30 seconds (output5/6, duty cycle 90) and incubated for 1 hour at 4° C. After a 30 minutes centrifugation at 12000 rpm and 4° C. the supernatant (soluble extract) is collected and protein concentration is determined using the BIORAD assay.
Anti-FLAG M2 affinity resin (Sigma) is washed three times with TBS and twice with LB. 10 μl of the LB-washed resin/mg of protein (2-3 ug of Flagged-HDAC1) are added to the soluble extract (1 mL) and incubated overnight at 4° C. with gentle mixing. The resin is then collected by centrifugation, washed once with LB, twice with LB+0.1% NP40 and twice with elution buffer (50 mM Hepes pH 7.4, 5% glycerol, 100 mM KCl, 0.01% Triton X-100).
The concentration of purified HDAC is determined by Western blot analysis.

In the next test the test system is HDAC in Hela cells. Kind of test: HDAC Hela Cell Based assay.
For test [1], the system named is human γ-globin promoter (EGFP reporter) in K562 cells. Put plainly: HbF activation assay on K562 (EGFP/RFP reporter model system for screening of inducers of fetal hemoglobin). In kind it is cell-based. Conditions: 60 hours. An excerpt:
In order to test several compounds, a model system was produced based on previous findings present in the literature. The K562 erythroid-like cell lines, isolated and characterized by Lozzio & Lozzio (Blood, 45(3), pp 321-334) from a patient with chronic myelogenous leukemia in blast crisis, have been extensively employed as a useful in vitro model to study the molecular mechanism(s) regulating the expression of embryonic and fetal human globin genes, as well as for screening of new differentiation-inducing compounds. A stable cell line where reporter genes encoding green EGFP and far-red fluorescent protein red-FP are placed under the control of the human γ-globin or β-globin promoters respectively was used (see Vadolas et al, Hum. Mol. Genet. 2004, 13, 2, 223-233 for details). The modified 3-cluster also contains the upstream regulatory region called LCR. This cell line grows in suspension at 37° C. and 5% CO2 in humidified atmosphere in the following medium: DMEM, 10% foetal bovine serum, glutamine and antibiotics (penicillin and streptomycin);
The assay procedures is as follows: • Single concentration compounds or serially diluted samples are transferred to an empty assay plates by a spotter (ATS-100, EDC Biosystems, USA) in order to have a final concentration of DMSO of 0.25% in 50 μL of cell culture. Source plats contains compounds dissolved in 100% DMSO • Black, transparent bottom, 384 wells, tissue culture treated plates are used as assay plates. • Assay plates containing spotted compounds are filled with a suspension of cell in the described assay medium. The final cell concentration is of 1000 cells per well. • Cells are incubated in humidified atmosphere, 37° C.-5% CO2, for 60 hours • Cell nuclei are stained by adding 10 ul (6 μM; 1 μM final) Hoechst 33342 (Life Technologies, USA) • The cell associated intensity is read by a plate based cytometer (ACUMEN explorer, TTP Labtech, UK) • The nuclei count is used to assess the cell proliferation/death and to normalize the total EGFP/RFP intensity. HbF Activation Assay in Human Cell Line K562
The compounds of the invention were tested in the HbF activation assay on K562, as model system for screening of potential inducers of fetal hemoglobin.

Where only a bound is given, the exact number is not on record here.

T1 sequence (Q13547 whole entry): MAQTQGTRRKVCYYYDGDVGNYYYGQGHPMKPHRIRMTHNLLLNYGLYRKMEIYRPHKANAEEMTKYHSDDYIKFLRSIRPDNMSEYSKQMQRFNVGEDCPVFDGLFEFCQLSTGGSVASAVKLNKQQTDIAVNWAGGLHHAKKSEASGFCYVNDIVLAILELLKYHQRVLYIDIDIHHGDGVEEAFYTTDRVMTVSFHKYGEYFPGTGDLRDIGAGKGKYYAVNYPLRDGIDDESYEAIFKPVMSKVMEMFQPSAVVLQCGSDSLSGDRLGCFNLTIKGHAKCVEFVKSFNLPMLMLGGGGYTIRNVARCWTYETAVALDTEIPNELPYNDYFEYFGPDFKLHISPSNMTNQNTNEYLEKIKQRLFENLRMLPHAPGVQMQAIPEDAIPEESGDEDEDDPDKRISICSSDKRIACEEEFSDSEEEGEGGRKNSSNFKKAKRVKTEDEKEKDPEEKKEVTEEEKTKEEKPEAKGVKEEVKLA

Consider `CCC(=O)CCCCC[C@H](NC(=O)[C@@H]1CC(F)(F)CN1)c1ncc(-c2cc3ccccc3nc2OC)o1` [Compound 60, (S)-4,4-difluoro-N-((S)-1-(5-(2-methoxyquinolin-3-yl)oxazol-2-yl)-7-oxononyl)pyrrolidine-2-carboxamide], for which the figures for the IC50 at HDAC1 and with HDAC in Hela cells were below 100 nM and above 1000 nM, respectively. In addition, the concentration for a half-maximal effect (EC50) (as a rule, the concentration at which the effect is half-maximal) in test [1] was above 1000 nM.

Regarding `CCC(=O)CCCCC[C@H](NC(=O)C1CN(C)C1)c1ncc(-c2ccc(-n3cccn3)cc2)o1` [Compound 61, (S)-N-(1-(5-(4-(1H-pyrazol-1-yl)phenyl)oxazol-2-yl)-7-oxononyl)-1-methylazetidine-3-carboxamide], the 50% inhibitory concentration (IC50) (as a rule, the concentration that inhibits the measured activity by half) was below 100 nM at HDAC1 and 100 to 1000 nM in the test with HDAC in Hela cells. This compound also registered a concentration for a half-maximal effect (EC50) in test [1] above 1000 nM.

As for `CCC(=O)CCCCC[C@H](NC(=O)C1CN(C(C)=O)C1)c1ncc(-c2ccc(-n3cccn3)cc2)o1` [Compound 62, (S)-N-(1-(5-(4-(1H-pyrazol-1-yl)phenyl)oxazol-2-yl)-7-oxononyl)-1-acetylazetidine-3-carboxamide], the 50% inhibitory concentration (IC50) is below 100 nM at HDAC1 and 100 to 1000 nM in the test on HDAC in Hela cells. This compound gave a 50% effective concentration (EC50) in test [1] above 1000 nM.

`CCC(=O)CCCCC[C@H](NC(=O)[C@H](CC(F)(F)F)N(C)C)c1ncc(-c2cc3ccccc3nc2OC)o1` [Compound 63, (S)-2-(dimethylamino)-4,4,4-trifluoro-N-((S)-1-(5-(2-methoxyquinolin-3-yl)oxazol-2-yl)-7-oxononyl)butanamide]: the figures for the IC50 on HDAC1 and in the test with HDAC in Hela cells were 100 to 1000 nM and above 1000 nM, respectively. For the same compound, the EC50 in test [1] was above 1000 nM.

`CCC(=O)CCCCC[C@H](NC(=O)[C@@H](CC(F)(F)F)N(C)C)c1ncc(-c2cc3ccccc3nc2OC)o1` [Compound 64, (R)-2-(dimethylamino)-4,4,4-trifluoro-N-((S)-1-(5-(2-methoxyquinolin-3-yl)oxazol-2-yl)-7-oxononyl)butanamide]: the IC50 was below 100 nM at HDAC1 and above 1000 nM in the test on HDAC in Hela cells. The compound further returned an EC50 in test [1] above 1000 nM.

With `CCC(=O)CCCCC[C@H](NC(=O)C1CN(C)C1)c1ncc(-c2ccc(-c3ccc(OC)nc3)cc2)o1` [Compound 65, (S)-N-(1-(5-(4-(6-methoxypyridin-3-yl)phenyl)oxazol-2-yl)-7-oxononyl)-1-methylazetidine-3-carboxamide], the results for the concentration for half-maximal inhibition (IC50) at HDAC1 and in the test on HDAC in Hela cells were below 100 nM and 100 to 1000 nM, respectively. In test [1], this compound yielded an EC50 above 1000 nM.

`CCC(=O)CCCCC[C@H](NC(=O)[C@@H]1C[C@H](F)CN1C)c1ncc(-c2cc3ccccc3nc2OC)o1` [Compound 66, (2S,4S)-4-fluoro-N-((S)-1-(5-(2-methoxyquinolin-3-yl)oxazol-2-yl)-7-oxononyl)-1-methylpyrrolidine-2-carboxamide]: the IC50 on HDAC1 was below 100 nM; in the test with HDAC in Hela cells it was 100 to 1000 nM. Further, the EC50 in test [1] was above 1000 nM.

With `CCC(=O)CCCCC[C@H](NC(=O)C1(F)CCN(C)CC1)c1ncc(-c2cc3ccccc3nc2OC)o1` [Compound 68, (S)-4-fluoro-N-(1-(5-(2-methoxyquinolin-3-yl)oxazol-2-yl)-7-oxononyl)-1-methylpiperidine-4-carboxamide], the IC50 at HDAC1 is below 100 nM; in the test on HDAC in Hela cells it was 100 to 1000 nM. For the same compound, the EC50 in test [1] is above 1000 nM.

Consider `CCC(=O)CCCCC[C@H](NC(=O)C(=O)N1CCOCC1)c1ncc(-c2cc3ccccc3nc2OC)o1` [Compound 69, (S)-N-(1-(5-(2-methoxyquinolin-3-yl)oxazol-2-yl)-7-oxononyl)-2-morpholino-2-oxoacetamide], for which the 50% inhibitory concentration (IC50) at HDAC1 was below 100 nM; with HDAC in Hela cells, 100 to 1000 nM. Further, the EC50 in test [1] is above 1000 nM.

In the case of `CCC(=O)CCCCC[C@H](NC(=O)C1CN(C)C1)c1ncc(-c2cccc3cccnc23)o1` [Compound 70, (S)-1-methyl-N-(7-oxo-1-(5-(quinolin-8-yl)oxazol-2-yl)nonyl)azetidine-3-carboxamide], the IC50 on HDAC1 is below 100 nM; in the test with HDAC in Hela cells, 100 to 1000 nM. The compound also returned a concentration giving a half-maximal response (EC50) in test [1] above 1000 nM.
